Experimental data taken from patent US20250353891A1 (MEDIMMUNE LIMITED, priority 2022, published 2025).
Starred links: 1 amine or outer side, 2 acyl side, 3 side chain; linkers in the order of their positions; H or OH if unused. Non-standard residues stand in square brackets, D forms with d. Residues, ends and D or L forms follow the SMILES beside them. Groups on a side chain read outwards from the residue. *: point of attachment. C20 diacid = O=C(O)CCCCCCCCCCCCCCCCCCC(=O)*; C18 diacid = O=C(O)CCCCCCCCCCCCCCCCC(=O)*; γGlu = O=C(O)[C@H](CCC(=O)[*:2])N[*:1]; αMeF = C[C@](N)(Cc1ccccc1)C(=O)O; AEEA = NCCOCCOCC(=O)O; Aib = CC(C)(N)C(=O)O

Key:
[1] = molecular target: human GLP-1 receptor (hGLP-1R) (Homo sapiens, UniProt P43220); test: cAMP production (HTRF) in CHO cells expressing hGLP-1R; format: cell-based; design: expressed in transfected cells; conditions: for EC50: Table 6, peptides modified at position 17, cAMP in CHO hGLP-1R cells, geometric mean, read-out: hGLP-1R EC50; for % Relative Potency Ratio: Table 6, % GLP-1R activity relative to GLP-1 / % GlucR activity relative to glucagon
Chain of human GLP-1 receptor (hGLP-1R) (P43220 24-463): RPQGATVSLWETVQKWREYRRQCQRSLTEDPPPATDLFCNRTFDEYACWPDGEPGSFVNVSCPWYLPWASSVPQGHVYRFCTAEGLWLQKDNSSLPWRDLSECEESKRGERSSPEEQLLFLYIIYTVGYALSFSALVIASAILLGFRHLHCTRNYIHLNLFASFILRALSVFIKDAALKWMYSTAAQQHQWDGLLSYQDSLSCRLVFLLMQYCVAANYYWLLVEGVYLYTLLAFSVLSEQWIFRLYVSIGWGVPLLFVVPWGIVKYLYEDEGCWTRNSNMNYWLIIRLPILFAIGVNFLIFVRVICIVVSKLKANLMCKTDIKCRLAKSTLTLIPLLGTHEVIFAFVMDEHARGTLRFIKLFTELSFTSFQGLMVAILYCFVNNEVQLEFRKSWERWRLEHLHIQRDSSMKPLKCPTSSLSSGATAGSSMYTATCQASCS
In short: (§1)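 Potency values represent EC50 from 4-parameter logistic curves of HTRF % Delta F signal. Receptor-expressing CHO cells (hGCGR 2×10^5 cells/mL, hGLP-1R 1×10^5 cells/mL) were exposed for 30 min at room temperature before two-step cAMP detection.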

[2] = molecular target: human glucagon receptor (hGCGR) (Homo sapiens, UniProt P47871); test: cAMP production (HTRF) in CHO cells expressing hGCGR; format: cell-based; design: expressed in transfected cells; conditions: Table 6, peptides modified at position 17; cAMP in CHO hGCGR cells; geometric mean; read-out: hGluc-R EC50
Chain of human glucagon receptor (hGCGR) (P47871 26-477): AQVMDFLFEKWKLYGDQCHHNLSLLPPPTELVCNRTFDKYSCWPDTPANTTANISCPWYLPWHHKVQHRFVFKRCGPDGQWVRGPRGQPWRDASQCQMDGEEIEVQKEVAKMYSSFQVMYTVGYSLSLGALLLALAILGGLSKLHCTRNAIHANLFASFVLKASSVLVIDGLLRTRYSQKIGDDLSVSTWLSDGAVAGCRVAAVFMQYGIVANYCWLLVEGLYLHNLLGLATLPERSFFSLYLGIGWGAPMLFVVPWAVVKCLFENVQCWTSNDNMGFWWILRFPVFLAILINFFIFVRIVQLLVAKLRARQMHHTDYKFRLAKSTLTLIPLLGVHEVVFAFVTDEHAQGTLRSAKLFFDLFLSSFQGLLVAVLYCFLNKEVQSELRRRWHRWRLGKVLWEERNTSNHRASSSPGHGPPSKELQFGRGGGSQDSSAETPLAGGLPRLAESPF
In short: as §1

EC50 [1]	% Relative Potency Ratio [1]	EC50 [2]	SMILES
0.0153 nM	5.6	0.0435 nM	CC(C)C[C@H](NC(=O)[C@H](Cc1c[nH]c2ccccc12)NC(=O)[C@H](CCCNC(=N)N)NC(=O)[C@@H](NC(=O)[C@H](Cc1ccccc1)NC(=O)[C@H](CC(=O)O)NC(=O)[C@H](CCC(N)=O)NC(=O)[C@H](C)NC(=O)[C@H](CCCNC(=N)N)NC(=O)[C@H](CCCCNC(=O)COCCOCCNC(=O)COCCOCCNC(=O)CC[C@H](NC(=O)CCCCCCCCCCCCCCCCC(=O)O)C(=O)O)NC(=O)[C@H](CO)NC(=O)[C@H](CC(=O)O)NC(=O)[C@H](CC(C)C)NC(=O)[C@](C)(Cc1ccccc1)NC(=O)[C@H](CCCCN)NC(=O)[C@H](CO)NC(=O)[C@@H](NC(=O)[C@H](CC(=O)O)NC(=O)[C@H](CO)NC(=O)[C@@H](NC(=O)[C@H](Cc1ccccc1)NC(=O)[C@@H](NC(=O)CNC(=O)[C@H](CCC(N)=O)NC(=O)C(C)(C)NC(=O)[C@@H](N)Cc1c[nH]cn1)[C@@H](C)O)[C@@H](C)O)C(C)C)C(C)C)C(=O)N[C@@H](CCC(=O)O)C(=O)N[C@@H](C)C(=O)NC(C)(C)C(=O)NCC(=O)O [Peptide 147] (H-H[Aib]QGTFTSDVSK[αMeF]LDSK([AEEA-AEEA-γGlu-C18 diacid])RAQDFVRWLEA[Aib]G-OH; N-terminus assumed)
0.0402 nM	27.9	0.568 nM	CC[C@H](C)[C@H](NC(=O)[C@H](Cc1c[nH]c2ccccc12)NC(=O)[C@H](CCCNC(=N)N)NC(=O)[C@@H](NC(=O)[C@H](Cc1ccccc1)NC(=O)[C@H](CC(=O)O)NC(=O)[C@H](CCC(N)=O)NC(=O)[C@H](C)NC(=O)[C@H](CCCNC(=N)N)NC(=O)[C@H](CCCCNC(=O)COCCOCCNC(=O)COCCOCCNC(=O)CC[C@H](NC(=O)CCCCCCCCCCCCCCCCC(=O)O)C(=O)O)NC(=O)[C@H](CO)NC(=O)[C@H](CC(=O)O)NC(=O)[C@H](CC(C)C)NC(=O)[C@](C)(Cc1ccccc1)NC(=O)[C@H](CCCCN)NC(=O)[C@H](CO)NC(=O)[C@@H](NC(=O)[C@H](CC(=O)O)NC(=O)[C@H](CO)NC(=O)[C@@H](NC(=O)[C@H](Cc1ccccc1)NC(=O)[C@@H](NC(=O)CNC(=O)[C@H](CCC(N)=O)NC(=O)C(C)(C)NC(=O)[C@@H](N)Cc1c[nH]cn1)[C@@H](C)O)[C@@H](C)O)C(C)C)C(C)C)C(=O)N[C@@H](C)C(=O)N[C@@H](CCC(=O)O)C(=O)NC(C)(C)C(=O)NCC(=O)O [Peptide 148] (H-H[Aib]QGTFTSDVSK[αMeF]LDSK([AEEA-AEEA-γGlu-C18 diacid])RAQDFVRWIAE[Aib]G-OH; N-terminus assumed)
0.00871 nM	602.8	2.65 nM	CC(C)C[C@H](NC(=O)[C@](C)(Cc1ccccc1)NC(=O)[C@H](CCCCN)NC(=O)[C@H](CO)NC(=O)[C@@H](NC(=O)[C@H](CC(=O)O)NC(=O)[C@H](CO)NC(=O)[C@@H](NC(=O)[C@H](Cc1ccccc1)NC(=O)[C@@H](NC(=O)CNC(=O)[C@H](CCC(N)=O)NC(=O)C(C)(C)NC(=O)[C@@H](N)Cc1c[nH]cn1)[C@@H](C)O)[C@@H](C)O)C(C)C)C(=O)N[C@@H](CC(=O)O)C(=O)N[C@@H](CO)C(=O)N[C@@H](CCCCNC(=O)COCCOCCNC(=O)COCCOCCNC(=O)CC[C@H](NC(=O)CCCCCCCCCCCCCCCCC(=O)O)C(=O)O)C(=O)N[C@@H](CCCNC(=N)N)C(=O)N[C@@H](C)C(=O)N[C@@H](CCC(N)=O)C(=O)N[C@@H](CC(=O)O)C(=O)N[C@@H](Cc1ccccc1)C(=O)N[C@H](C(=O)N[C@@H](CCCNC(=N)N)C(=O)N[C@@H](Cc1c[nH]c2ccccc12)C(=O)N[C@H](C(=O)N[C@H](C(=O)N[C@@H](CCC(=O)O)C(=O)NC(C)(C)C(=O)NCC(=O)O)C(C)C)C(C)C)C(C)C [Peptide 149] (H-H[Aib]QGTFTSDVSK[αMeF]LDSK([AEEA-AEEA-γGlu-C18 diacid])RAQDFVRWVVE[Aib]G-OH; N-terminus assumed)
0.166 nM	4.2	0.355 nM	CC(C)C[C@H](NC(=O)[C@H](Cc1c[nH]c2ccccc12)NC(=O)[C@H](CCC(N)=O)NC(=O)[C@@H](NC(=O)[C@H](Cc1ccccc1)NC(=O)[C@H](CC(=O)O)NC(=O)[C@H](CCC(N)=O)NC(=O)[C@H](C)NC(=O)[C@H](CCCNC(=N)N)NC(=O)[C@H](CCCCNC(=O)COCCOCCNC(=O)COCCOCCNC(=O)CC[C@H](NC(=O)CCCCCCCCCCCCCCCCC(=O)O)C(=O)O)NC(=O)[C@H](CO)NC(=O)[C@H](CC(=O)O)NC(=O)[C@H](CC(C)C)NC(=O)[C@](C)(Cc1ccccc1)NC(=O)[C@H](CCCCN)NC(=O)[C@H](CO)NC(=O)[C@@H](NC(=O)[C@H](CC(=O)O)NC(=O)[C@H](CO)NC(=O)[C@@H](NC(=O)[C@H](Cc1ccccc1)NC(=O)[C@@H](NC(=O)CNC(=O)[C@H](CCC(N)=O)NC(=O)C(C)(C)NC(=O)[C@@H](N)Cc1c[nH]cn1)[C@@H](C)O)[C@@H](C)O)C(C)C)C(C)C)C(=O)N[C@@H](CC(C)C)C(=O)NC(C)(C)C(=O)N[C@H](C(=O)N[C@@H](CCC(=O)O)C(=O)O)[C@@H](C)O [Peptide 150] (H-H[Aib]QGTFTSDVSK[αMeF]LDSK([AEEA-AEEA-γGlu-C18 diacid])RAQDFVQWLL[Aib]TE-OH; N-terminus assumed)
0.111 nM	3.2	0.178 nM	CC(C)C[C@H](NC(=O)[C@H](Cc1c[nH]c2ccccc12)NC(=O)[C@H](CCCNC(=N)N)NC(=O)[C@@H](NC(=O)[C@H](Cc1ccccc1)NC(=O)[C@H](CC(=O)O)NC(=O)[C@H](CCC(N)=O)NC(=O)[C@H](C)NC(=O)[C@H](CCCNC(=N)N)NC(=O)[C@H](CCCCNC(=O)COCCOCCNC(=O)COCCOCCNC(=O)CC[C@H](NC(=O)CCCCCCCCCCCCCCCCCCC(=O)O)C(=O)O)NC(=O)[C@H](CO)NC(=O)[C@H](CC(=O)O)NC(=O)[C@H](CC(C)C)NC(=O)[C@](C)(Cc1ccccc1)NC(=O)[C@H](CCCCN)NC(=O)[C@H](CO)NC(=O)[C@@H](NC(=O)[C@H](CC(=O)O)NC(=O)[C@H](CO)NC(=O)[C@@H](NC(=O)[C@H](Cc1ccccc1)NC(=O)[C@@H](NC(=O)CNC(=O)[C@H](CCC(N)=O)NC(=O)C(C)(C)NC(=O)[C@@H](N)Cc1c[nH]cn1)[C@@H](C)O)[C@@H](C)O)C(C)C)C(C)C)C(=O)N[C@@H](CC(C)C)C(=O)NC(C)(C)C(=O)N[C@H](C(=O)N[C@@H](CCC(=O)O)C(=O)O)[C@@H](C)O [Peptide 151] (H-H[Aib]QGTFTSDVSK[αMeF]LDSK([AEEA-AEEA-γGlu-C20 diacid])RAQDFVRWLL[Aib]TE-OH; N-terminus assumed)
0.0119 nM	3.4	0.0204 nM	CC(C)C[C@H](NC(=O)[C@H](Cc1c[nH]c2ccccc12)NC(=O)[C@H](CCCNC(=N)N)NC(=O)[C@@H](NC(=O)[C@H](Cc1ccccc1)NC(=O)[C@H](CC(=O)O)NC(=O)[C@H](CCC(N)=O)NC(=O)[C@H](C)NC(=O)[C@H](CCCNC(=N)N)NC(=O)[C@H](CCCCNC(=O)COCCOCCNC(=O)COCCOCCNC(=O)CC[C@H](NC(=O)CCCCCCCCCCCCCCCCC(=O)O)C(=O)O)NC(=O)[C@H](CO)NC(=O)[C@H](CC(=O)O)NC(=O)[C@H](CC(C)C)NC(=O)[C@](C)(Cc1ccccc1)NC(=O)[C@H](CCCCN)NC(=O)[C@H](CO)NC(=O)[C@@H](NC(=O)[C@H](CC(=O)O)NC(=O)[C@H](CO)NC(=O)[C@@H](NC(=O)[C@H](Cc1ccccc1)NC(=O)[C@@H](NC(=O)CNC(=O)[C@H](CCC(N)=O)NC(=O)C(C)(C)NC(=O)[C@@H](N)Cc1c[nH]cn1)[C@@H](C)O)[C@@H](C)O)C(C)C)C(C)C)C(=O)N[C@@H](CC(C)C)C(=O)NC(C)(C)C(=O)N[C@@H](CCC(=O)O)C(=O)O [Peptide 152] (H-H[Aib]QGTFTSDVSK[αMeF]LDSK([AEEA-AEEA-γGlu-C18 diacid])RAQDFVRWLL[Aib]E-OH; N-terminus assumed)
0.0412 nM	4.8	0.099 nM	CC(C)C[C@H](NC(=O)[C@H](Cc1c[nH]c2ccccc12)NC(=O)[C@H](CCCNC(=N)N)NC(=O)[C@@H](NC(=O)[C@H](Cc1ccccc1)NC(=O)[C@H](CC(=O)O)NC(=O)[C@H](CCC(N)=O)NC(=O)[C@H](C)NC(=O)[C@H](CCCNC(=N)N)NC(=O)[C@H](CCCCNC(=O)COCCOCCNC(=O)COCCOCCNC(=O)CC[C@H](NC(=O)CCCCCCCCCCCCCCCCCCC(=O)O)C(=O)O)NC(=O)[C@H](CO)NC(=O)[C@H](CC(=O)O)NC(=O)[C@H](CC(C)C)NC(=O)[C@](C)(Cc1ccccc1)NC(=O)[C@H](CCCCN)NC(=O)[C@H](CO)NC(=O)[C@@H](NC(=O)[C@H](CC(=O)O)NC(=O)[C@H](CO)NC(=O)[C@@H](NC(=O)[C@H](Cc1ccccc1)NC(=O)[C@@H](NC(=O)CNC(=O)[C@H](CCC(N)=O)NC(=O)C(C)(C)NC(=O)[C@@H](N)Cc1c[nH]cn1)[C@@H](C)O)[C@@H](C)O)C(C)C)C(C)C)C(=O)N[C@@H](CC(C)C)C(=O)NC(C)(C)C(=O)N[C@@H](CCC(=O)O)C(=O)O [Peptide 153] (H-H[Aib]QGTFTSDVSK[αMeF]LDSK([AEEA-AEEA-γGlu-C20 diacid])RAQDFVRWLL[Aib]E-OH; N-terminus assumed)
